According to PubChem BioAssay (NCI):
“And” between values parts separate entries of the source, which are not always exact repeats. Equal entries are not always repeated.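 Assay format: 96-well plates, 48-hour exposure. Here, GI50 denotes the concentration required for 50% inhibition of growth. Definition used: TGI = concentration required for complete inhibition of growth.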

Legend:
Experiment in all cases: growth of human tumour cells (NCI), 48 h
[1] = system: SK-MEL-28 melanoma
[2] = system: CAKI-1 renal
[3] = system: SF-295 CNS
[4] = system: SF-268 CNS
[5] = system: BT-549 breast
[6] = system: HOP-62 NSCLC
[7] = system: MALME-3M melanoma
[8] = system: EKVX NSCLC
[9] = system: RPMI-8226 leukemia
[10] = system: NCI-H522 lung
[11] = system: RXF 393 renal
[12] = system: UO-31 renal
[13] = system: SF-539 CNS
[14] = system: HCC-2998 colon

SMILES	TGI [1]	TGI [2]	TGI [3]	TGI [4]	TGI [5] [µM]	TGI [6]	TGI [7]	TGI [8]	TGI [9]	TGI [10]	TGI [11]	TGI [12] [µM]	TGI [13]	TGI [14]	GI50 [14]	GI50 [6]	GI50 [8]	GI50 [9] [µM]	GI50 [11]	GI50 [12] [µM]
CC1=CP(=O)(c2c(C(C)C)cc(C(C)C)cc2C(C)C)CCC1Cl (stereo not given)	35.1 µM	39.4 µM	27.4 µM	35.4 µM	33.4	33.9 µM	30.4 µM	32.6 µM	40.9 µM	33.6 µM	31.5 µM	29.2	32.9 µM	–	–	–	–	–	–	–
COc1cc(-c2c3c(cc4c2OCO4)[C@@H](Nc2ccc(-c4ccc(-c5ccc(N[C@@H]6c7cc8c(cc7C(c7cc(OC)c(O)c(OC)c7)[C@H]7C(=O)OC[C@H]67)OCO8)cc5)cc4)cc2)[C@H]2COC(=O)[C@@H]2C3)cc(OC)c1O (stereo not given in full)	15.7 µM	8.8 µM	3.82 µM	10.9 µM	6.76	8.81 µM	7.4 µM	25.2 µM	–	–	–	13.1	–	–	–	–	–	–	–	–
COc1cc2c(cc1OC)C(=O)/C(=C/c1cc(C)cc(C)c1)C2	> 100 µM	–	–	> 100 µM	60.4	> 61.2 µM	–	> 100 µM	> 42.6 µM	> 46.8 µM	0.604 µM	> 100	–	2.14 µM	–	–	–	–	–	–
CC(=O)OC1[C@H](OC(C)=O)C2=C(C)[C@@H](OC(C)=O)C[C@@]2(C(C)(C)O)[C@@H](OC(C)=O)[C@H]2[C@@]1(C)[C@@H](OC(C)=O)CC(OC(C)=O)[C@]21CO1 (stereo not given in full)	> 100 µM	> 100 µM	> 100 µM	> 100 µM	–	> 100 µM	> 100 µM	> 100 µM	> 100 µM	> 100 µM	> 100 µM	> 100	> 100 µM	–	–	–	–	–	–	–
Cc1cc2nc3c(C#N)c4c(c(-c5ccc(Cl)cc5)n3c2cc1C)CCC4	50.3 µM	42.9 µM	39.8 µM	57.9 µM	41.8	46.2 µM	46.8 µM	54.4 µM	74.4 µM	35.4 µM	> 100 µM	39.4	78.9 µM	–	–	–	–	–	–	–
CNc1ncnc2c1nc(NC1CCCC1)n2C1OC(CO)C(O)C1O (stereo not given)	> 100 µM	> 100 µM	> 100 µM	> 100 µM	–	> 100 µM	> 100 µM	–	–	> 100 µM	> 100 µM	> 100	> 100 µM	> 100 µM	–	–	–	–	–	–
COC1C(N(C)C)=C(c2ccccc2)C(=O)N2CCc3ccccc3C12 (stereo not given)	> 100 µM	> 100 µM	> 100 µM	> 100 µM	–	> 100 µM	> 100 µM	> 100 µM	–	> 100 µM	> 100 µM	> 100	> 100 µM	–	–	–	–	–	–	–
CC1=C(C)CC2(C=C(C(C)(C)C)C(=O)C(C(C)(C)C)=C2)SC1	–	54.9 µM	31.4 µM	46.6 µM	–	37.9 µM	33.4 µM	36.9 µM	33.8 µM	16.5 µM	38.7 µM	29.7	38 µM	–	–	–	–	–	–	–
CCn1c(CCl)nc2c1C(=O)c1ccccc1C2=O	3.19 µM	–	3.54 µM	6.65 µM	4.09	4.95 µM	2.41 µM	6.44 µM	> 100 µM	–	3.29 µM	–	4.89 µM	2.9 µM	–	–	–	–	–	–
C/C(=C/CC[C@]1(CO)CC[C@]2(C)[C@H](CC[C@@H]3[C@@]4(C)CC[C@H](OC5OC(CO)C(O)C(O)C5OC5OC(CO)C(O)C(O)C5O)C(C)(C)[C@@H]4CC[C@]32C)[C@H]1O)CO (stereo not given in full)	> 100 µM	> 100 µM	> 100 µM	> 100 µM	> 100	> 100 µM	> 100 µM	> 100 µM	> 100 µM	> 100 µM	> 100 µM	> 100	> 100 µM	–	–	–	–	–	–	–
COc1cc2c(/C=C3/C(=O)Nc4ccc(Cl)cc43)c(Cl)[nH]c2cc1C	14.5 µM	14.8 µM	10.5 µM	43.7 µM	1.08	13.7 µM	20.9 µM	–	5.13 µM	7.01 µM	20.5 µM	15.8	0.638 µM	–	–	–	–	–	–	–
CCc1c(-c2ccc(OC)cc2)oc(OC)c(C)c1=O	> 100 µM	> 100 µM	> 100 µM	> 100 µM	> 100	> 100 µM	–	> 100 µM	–	> 100 µM	> 100 µM	> 100	> 100 µM	> 100 µM	–	–	–	–	–	–
C[C@@H]1CC(=O)C[C@@H]2CC[C@H]3[C@@H]4CC[C@H](OC(=O)c5cccc6cc7ccccc7nc56)[C@H]4CC[C@@H]3[C@H]21	93.3 µM	33.7 µM	77.6 µM	20.9 µM	59.1	52.3 µM	22.8 µM	34.7 µM	–	20.1 µM	34.9 µM	31	38.6 µM	–	–	–	–	–	–	–
Cn1c(=O)c2c(nc3sc4ccccc4c(=O)n32)n(C)c1=O	> 100 µM	> 100 µM	> 100 µM	> 100 µM	> 100	> 100 µM	–	> 100 µM	> 100 µM	–	> 100 µM	> 100	> 100 µM	> 100 µM	–	–	–	–	–	–
CC(=O)NC1=NC(=O)/C(=C/c2ccc(/C=C3/C(=O)N=C(NC(C)=O)N3C)cc2)N1C	> 100 µM	> 100 µM	> 100 µM	> 100 µM	> 100	> 100 µM	–	> 100 µM	–	–	> 100 µM	> 100	> 100 µM	> 100 µM	–	–	–	–	–	–
Cc1ccc(C2(c3ccc(F)cc3)OC(=O)c3ccccc32)c(O)c1 (stereo not given)	–	24.9 µM	24.5 µM	86.7 µM	44.6	28.8 µM	–	92.1 µM	59.8 µM	35.9 µM	–	22.4	37.5 µM	38.4 µM	–	–	–	–	–	–
C[C@]12CC(c3ccccc3O1)C(C(=O)Nc1nc(C34CC5CC(CC(C5)C3)C4)cs1)C(=O)N2 (stereo not given in full)	> 100 µM	> 100 µM	–	> 100 µM	> 100	> 100 µM	> 100 µM	> 100 µM	> 100 µM	–	> 100 µM	–	–	> 100 µM	–	–	–	–	–	–

SMILES	TGI [1]	TGI [2]	TGI [3]	TGI [4]	TGI [5] [µM]	TGI [6]	TGI [7]	TGI [8]	TGI [9]	TGI [10]	TGI [11]	TGI [12] [µM]	TGI [13]	TGI [14]	GI50 [14]	GI50 [6]	GI50 [8]	GI50 [9] [µM]	GI50 [11]	GI50 [12] [µM]
C[C@H](CCC1SC1(C)C)C1CCC2(C)C3=C(CC[C@]12C)[C@@]1(C)CC[C@H](O)C(C)(C)C1CC3 (stereo not given in full)	> 100 µM	> 100 µM	> 100 µM	> 100 µM	–	> 100 µM	> 100 µM	> 100 µM	> 100 µM	> 100 µM	> 100 µM	> 100	–	> 100 µM	–	–	–	–	–	–
CCn1c2ccccc2c2c(-c3ccccc3)cc3c(c21)C(=O)N(c1ccccc1)C3=O	> 100 µM	> 100 µM	> 100 µM	> 100 µM	–	–	> 100 µM	> 100 µM	–	> 100 µM	–	> 100	> 100 µM	> 100 µM	–	–	–	–	–	–
C=C(Cl)C(Cl)(CCl)CCC(Br)C(C)(C)Br (stereo not given)	> 10 µM	> 10 µM	> 10 µM	> 10 µM	> 10	> 10 µM	–	> 10 µM	> 10 µM	> 10 µM	> 10 µM	> 10	> 10 µM	> 10 µM	–	–	–	–	–	–
CN(C)c1ccc(/C=C/c2sc3ccccc3[n+]2C)cc1	15.7 µM and 6.34 µM	13.2 µM and 11.6 µM	24.8 µM and 23.1 µM	17.5 µM and 23 µM	–	14.9 µM and > 100 µM	12.1 µM and 6 µM	31.9 µM and 19.8 µM	0.719 µM and 4.19 µM	11.1 µM and 7.29 µM	27.8 µM and 36.3 µM	–	9.91 µM and 17.8 µM	25.7 µM and 17.3 µM	11.2 µM and 1.48 µM	3.7 µM and 8.53 µM	9.19 µM and 2.31 µM	0.355	11 µM and 5.02 µM	2.91
O=C(O)/C=C/c1ccc2c(c1)CC1(Cc3ccccc3C1)C2	–	–	> 100 µM	–	–	> 100 µM	> 100 µM	> 100 µM	> 100 µM	> 100 µM	> 100 µM	> 100	> 100 µM	> 100 µM	–	–	–	–	–	–
COc1nc2ccc(COc3ccc(C(=O)O)cc3)cc2nc1OC	> 100 µM	> 100 µM	> 100 µM	> 100 µM	–	> 100 µM	> 100 µM	> 100 µM	–	> 100 µM	–	> 100	> 100 µM	> 100 µM	–	–	–	–	–	–
Cn1cc(S(=O)(=O)NC(=O)Nc2ccc(Cl)cc2)c(=O)c2ccc(F)cc21	> 100 µM	> 100 µM	> 100 µM	> 100 µM	–	> 100 µM	> 100 µM	> 100 µM	> 100 µM	> 100 µM	> 100 µM	> 100	> 100 µM	> 100 µM	–	–	–	–	–	–
OC1(c2ccc(Cl)cc2)c2ccccc2-c2nc3ccccc3n21 (stereo not given)	> 100 µM	> 100 µM	> 100 µM	> 100 µM	> 100	> 100 µM	–	> 100 µM	> 100 µM	> 100 µM	55 µM	> 100	> 100 µM	> 100 µM	–	–	–	–	–	–
O=C(/C=C(\C(=O)c1cccs1)c1cccs1)c1ccc(C(=O)/C=C(\C(=O)c2cccs2)c2cccs2)cc1	> 100 µM	> 100 µM	> 100 µM	> 100 µM	–	> 100 µM	–	> 100 µM	> 100 µM	–	> 100 µM	> 100	> 100 µM	> 100 µM	–	–	–	–	–	–
Cc1c2c(n(CC(c3ccccc3)c3ccccc3)c1C)NN=C(C#N)S2(=O)=O	> 100 µM	> 100 µM	> 100 µM	> 100 µM	> 100	> 100 µM	–	> 100 µM	> 100 µM	> 100 µM	–	> 100	> 100 µM	> 100 µM	–	–	–	–	–	–
CCOC(=O)c1c(SC(=O)c2ccc(OC)cc2)n(-c2ccccc2)c(=S)n(-c2ccccc2)c1=O	> 100 µM	> 100 µM	> 100 µM	43.4 µM	–	> 100 µM	> 100 µM	> 100 µM	–	> 100 µM	> 100 µM	–	42.2 µM	> 100 µM	–	–	–	–	–	–
O=C(Nc1ccc(S(=O)(=O)/N=c2\ncccn2C(=O)C(C(F)(F)F)C(F)(F)F)cc1)C(C(F)(F)F)C(F)(F)F	> 100 µM	0.242 µM	> 100 µM	> 100 µM	–	> 100 µM	> 100 µM	> 100 µM	> 100 µM	> 100 µM	> 100 µM	–	> 100 µM	> 100 µM	–	–	–	–	–	–
O=c1[nH]c(=O)n(COCc2ccccc2)cc1Nc1ccc(Br)cc1	> 100 µM	> 100 µM	> 100 µM	> 100 µM	> 100	88.7 µM	–	> 100 µM	> 100 µM	–	> 100 µM	> 100	–	> 100 µM	–	–	–	–	–	–
Cc1nc2cc(Nc3ccccc3C(=O)O)ccc2s1	> 100 µM	> 100 µM	> 100 µM	> 100 µM	–	> 100 µM	> 100 µM	–	> 100 µM	> 100 µM	> 100 µM	> 100	> 100 µM	> 100 µM	–	–	–	–	–	–
COc1cc2c(/C=C3/C(=O)N(C)c4ccc(O)cc43)c(Cl)[nH]c2cc1C	15.4 µM	13.6 µM	2.93 µM	25.3 µM	15.8	3.94 µM	–	23.9 µM	4.7 µM	16.6 µM	23.3 µM	24.5	0.722 µM	0.85 µM	–	–	–	–	–	–
COc1ccc(C2C(=O)c3c(OC)cc(OC)cc3OC2c2cccnc2)cc1 (stereo not given)	> 100 µM	> 100 µM	> 100 µM	> 100 µM	–	> 100 µM	> 100 µM	> 100 µM	–	> 100 µM	> 100 µM	> 100	> 100 µM	> 100 µM	–	–	–	–	–	–
C#CCN(Cc1ccc2nc(-c3ccccc3)c(N)nc2c1)c1cc(OC)c(OC)c(OC)c1	> 100 µM	–	66 µM	> 100 µM	–	> 100 µM	83.3 µM	> 100 µM	32.3 µM	64.3 µM	96.2 µM	69.3	> 100 µM	> 100 µM	–	–	–	–	–	–
